Reference: patent US11541029B2, “High penetration compositions and their applications” (Techfields Pharma Co., Ltd., priority 2008, dated 2023)

Key:
[1] = test system: Human colon cancer cells (LS174J); assay: Human colon cancer xenograft in nude mice
Source text: Human colon cancer cells (LS174J, 2-3 mm^3 of tumor tissue was used in each mouse) were subcutaneously xenografted into nude mice (BALB).

[2] = test system: Human breast cancer cells (BCAP-37); assay: Human breast cancer xenograft in nude mice
Method: Human breast cancer cells (BCAP-37, 2-3 mm^3 of tumor tissue was used in each mouse) were subcutaneously xenografted into nude mice (BALB, 12 groups, 7 mice each group). […] 50 μl of 5% (equal to 2.5 mg of the HPCs) diethylaminoethyl acetylsalicylate.HCl (P-1, in pure water); 1-piperidinepropyl 2[(2,6-dichlorophenyl)amino]benzene acetate.HCl (P-2, in water), 1-pyrrolidinepropyl 2-(3-benzoylphenyl) propionate.HCl (P-3, in water), 4-piperidinemethyl 2-(3-phenoxyphenyl)propionate.HCl (P-4, in water), 3-piperidinemethyl 2-(ρ-isobutylphenyl) propionate.HCl (P-5, in water), diethylaminoethyl 1-(p-chlorobenzoyl)-5-methoxy-2-methylindole 3-acetate.HCl (P-11, in water), 2-(4-morpholinyl)ethyl (Z)-5-fluoro-2-methyl-1-[(4-methylsulfinyl)phenylmethylene]-1H-indene-3-acetate.

[3] = test system: type 2 diabetes rat models [SLAC/GK(Goto and Kakisaki)]; assay: Hypoglycemic effects of aspirin and its HPC in GK rats, once per day for 6 weeks; format: in vivo; settings: for Blood Glucose Levels at day 1 / Blood Glucose Levels at day 42: no fasting, n = 5;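 as to Blood Glucose Levels at day 42: blood glucose in mg/dL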
Method: The blood glucose levels were measured three times every week (no fasting) from the third week to the sixth week.

[4] = test system: rats given sterilized E. coli suspension as a pyrogen; assay: Antipyretic activity of aspirin and its HPC (Study B); format: in vivo
Method: […] Group A was the control group. The body temperature of rats was taken at 90 min. intervals before and after the administration of the test compounds.

[5] = Distribution in organs of rats killed with CO2 (absence of general circulation); settings: 5 hrs after 0.3 mmol/kg diethylaminoethyl acetylsalicylate HCl salt on back of killed rats;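 also: tissue concentration in nmol/g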
Method: 0.3 mmol/kg of diethylaminoethyl acetylsalicylate HCl salt (10% in pure water) was applied to the back of rats (10 cm^2) which were killed with CO2. The rats were shaken for 5 hrs, then the HPCs and parent drugs in organs of rats were determined.

[6] = test system: Human Gastric Cancer HGC-27 cell; assay: HGC-27 cell proliferation, MTT assay; format: cell-based; settings: 72 hours
Method: The inhibition of cellular proliferation was measured by the modified dimethyl thiazolyl diphenyl tetrazolium salt (MTT) [3-(4,5-dimethylthiazol-2-yl)-2,5-diphenyltetrazolium bromide] assay, based on the ability of live cells to converting thiazolyl blue to dark blue formazan. Approximately 3500 cells of HGC-27 (in 100 μl culture solution) were seeded into 96-well culture plates and were cultured for 16 hours at 37° C. Different concentration solution (100 μl) of Taxol (positive control), chlorambucil, or N,N-diethylaminoethyl 4-[bis(2-chloroethyl)amino]benzenebutyrate.HCl salt (HPC of chlorambucil) were added and incubation continued for 72 hours at 37° C. Then MTT were added and incubation continued at 37° C. for 4 h, and 100 μl DMSO was pipetted to solubilize the formazan product for 30 min at room temperature. The absorbency at 570 nm was measured using Bio-Rad micro-plate reader […].

[7] = about 50 μl of 5% topically every 12 hours
[8] = 50 μl of 5% topically every 8 hours

CCN(CC)CCOC(=O)c1ccccc1Nc1c(Cl)ccc(C)c1Cl.Cl [P-47, diethylaminoethyl 2-[(2,6-dichloro-3-methylphenyl)amino]benzoate.HCl]
tumor Size at day 30 [1, 7]: 590 ± 350 mm^3
Weight of mice at day 30 ([1]; in vivo): 22 ± 2

CN(C)CCCC(=O)OC1=C(C(=O)Nc2nccs2)N(C)S(=O)(=O)c2ccccc21.Cl [P-52, N-(2-thiazoyl)-4-N,N-dimethylaminobutyryloxy-2-methyl-2H,1,2-benzothiazine-3-carboxamide 1,1-dioxide.HCl]
tumor Size at day 30 [1, 7]: 720 ± 280 mm^3
Weight of mice at day 30 ([1]; in vivo): 23 ± 3

Cl.O=C(Cc1ccccc1Nc1c(Cl)cccc1Cl)OCCCN1CCCCC1 [P-2, 1-piperidinepropyl 2[(2,6-dichlorophenyl)amino]benzene acetate.HCl]
Weight of mice at day 30 [1, 7]: 22 ± 2
tumor Size at day 30 [1, 7]: 520 ± 170 mm^3
tumor Size at day 42 [2, 8]: 160 ± 50 mm^3
Weight of mice at day 42 ([2]; 50 μl of 5% topically every 8 hours, in g (unit assumed)): 23 ± 2

CC(C(=O)OCCCN1CCCC1)c1cccc(C(=O)c2ccccc2)c1.Cl (centres unmarked) [P-3, 1-pyrrolidinepropyl 2-(3-benzoylphenyl) propionate.HCl]
tumor Size at day 30 [1, 7]: 550 ± 190 mm^3
Weight of mice at day 30 ([1]; in vivo): 23 ± 2
tumor Size at day 42 [2, 8]: 210 ± 60 mm^3
Weight of mice at day 42 ([2]; in vivo): 22 ± 3

Cl.Nc1c(CC(=O)OCCN2CCOCC2)cccc1C(=O)c1ccccc1 [P-16, 2-(4-morpholinyl)ethyl 2-amino-3-benzoylbenzeneacetate.HCl]
tumor Size at day 30 [1, 7]: 590 ± 350 mm^3
Weight of mice at day 30 ([1]; in vivo): 23 ± 2

CC(=O)Oc1ccccc1C(=O)O [aspirin, acetylsalicylic acid, reference compound]
Blood Glucose Levels at day 1 ([3]; 50 mg/kg, orally): 213.7 ± 20.5 mg/dL
Blood Glucose Levels at day 42 ([3]; 50 mg/kg, orally): 243.4 ± 26.7 mg/dL
Blood Glucose Levels at day 1 ([3]; 50 mg/kg, transdermally): 216.6 ± 17.3 mg/dL
Blood Glucose Levels at day 42 ([3]; 50 mg/kg, transdermally): 258.2 ± 17.4 mg/dL
Blood Glucose Levels at day 1 ([3]; 100 mg/kg, orally): 211.3 ± 21.5 mg/dL
Blood Glucose Levels at day 42 ([3]; 100 mg/kg, orally): 219.4 ± 19.9 mg/dL
Blood Glucose Levels at day 1 ([3]; 100 mg/kg, transdermally): 217.4 ± 18.9 mg/dL
Blood Glucose Levels at day 42 ([3]; 100 mg/kg, transdermally): 255.4 ± 24.6 mg/dL
Blood Glucose Levels at day 1 ([3]; 200 mg/kg, orally): 213.5 ± 21.5 mg/dL
Blood Glucose Levels at day 42 ([3]; 200 mg/kg, orally): 195.4 ± 23.4 mg/dL
Blood Glucose Levels at day 1 ([3]; 200 mg/kg, transdermally): 216.4 ± 21.9 mg/dL
Blood Glucose Levels at day 42 ([3]; 200 mg/kg, transdermally): 247.4 ± 27.8 mg/dL
Blood Glucose Levels at day 1 ([3]; 300 mg/kg, orally): 215.6 ± 22.4 mg/dL
Blood Glucose Levels at day 42 ([3]; 300 mg/kg, orally): 165.4 ± 22.1 mg/dL
anti-diabetic effect ([3]; transdermal administration): did not show any anti-diabetic effect
body temperature ([4]; 20 mg/kg, orally, t = 0 min., in °C (unit assumed)): 37.5 ± 0.2
body temperature ([4]; 20 mg/kg, orally, t = 90 min., in °C (unit assumed)): 37.7 ± 0.3
body temperature ([4]; 20 mg/kg, orally, t = 180 min., in °C (unit assumed)): 37.4 ± 0.3
body temperature ([4]; 20 mg/kg, orally, t = 270 min., in °C (unit assumed)): 37.4 ± 0.4
body temperature ([4]; 50 mg/kg, orally, t = 0 min., in °C (unit assumed)): 37.5 ± 0.3
body temperature ([4]; 50 mg/kg, orally, t = 90 min., in °C (unit assumed)): 37.7 ± 0.3
body temperature ([4]; 50 mg/kg, orally, t = 180 min., in °C (unit assumed)): 37.1 ± 0.3
body temperature ([4]; 50 mg/kg, orally, t = 270 min., in °C (unit assumed)): 37.0 ± 0.4
body temperature ([4]; 100 mg/kg, orally, t = 0 min., in °C (unit assumed)): 37.5 ± 0.2
body temperature ([4]; 100 mg/kg, orally, t = 90 min., in °C (unit assumed)): 37.3 ± 0.4
body temperature ([4]; 100 mg/kg, orally, t = 180 min., in °C (unit assumed)): 36.7 ± 0.3
body temperature ([4]; 100 mg/kg, orally, t = 270 min., in °C (unit assumed)): 36.8 ± 0.4
body temperature ([4]; groups H/I, 50 mg/kg, transdermally, t = 0 min., in °C (unit assumed)): 37.6 ± 0.3
body temperature ([4]; groups H/I, 50 mg/kg, transdermally, t = 90 min., in °C (unit assumed)): 37.9 ± 0.3
body temperature ([4]; groups H/I, 50 mg/kg, transdermally, t = 180 min., in °C (unit assumed)): 37.8 ± 0.4
body temperature ([4]; groups H/I, 50 mg/kg, transdermally, t = 270 min., in °C (unit assumed)): 37.7 ± 0.5
body temperature ([4]; groups J/K, 20 mg/kg, transdermally, t = 0 min., in °C (unit assumed)): 37.6 ± 0.3
body temperature ([4]; groups J/K, 20 mg/kg, transdermally, t = 90 min., in °C (unit assumed)): 37.8 ± 0.4
body temperature ([4]; groups J/K, 20 mg/kg, transdermally, t = 180 min., in °C (unit assumed)): 37.7 ± 0.4
body temperature ([4]; groups J/K, 20 mg/kg, transdermally, t = 270 min., in °C (unit assumed)): 38.0 ± 0.3
body temperature ([4]; groups L/M, 20 mg/kg, transdermally, t = 0 min.): 37.5 ± 0.3
body temperature ([4]; groups L/M, 20 mg/kg, transdermally, t = 90 min., in °C (unit assumed)): 37.6 ± 0.5
body temperature ([4]; groups L/M, 20 mg/kg, transdermally, t = 180 min., in °C (unit assumed)): 37.8 ± 0.3
body temperature ([4]; groups L/M, 20 mg/kg, transdermally, t = 270 min., in °C (unit assumed)): 37.9 ± 0.3
antipyretic activity ([4]; transdermal administration): did not show any antipyretic activity
concentration in Leg muscle [5]: 6.7 ± 2.1 nmol/g
concentration in kidney [5]: 3.5 ± 2.1 nmol/g
concentration in liver [5]: 2.1 ± 1.0 nmol/g
concentration in pancreas [5]: 4.1 ± 1.3 nmol/g
concentration in stomach [5]: 4.7 ± 2.5 nmol/g

CCN(CC)CCOC(=O)CCCc1ccc(N(CCCl)CCCl)cc1.Cl [HPC of chlorambucil, N,N-diethylaminoethyl 4-[bis(2-chloroethyl)amino]benzenebutyrate.HCl salt]
HGC-27 cell growth inhibition rate ([6]; 0.5 μM): 15.6%
HGC-27 cell growth inhibition rate ([6]; 2.0 μM): 28.7%
HGC-27 cell growth inhibition rate ([6]; 5.0 μM): 42.1%
HGC-27 cell growth inhibition rate ([6]; 25 μM): 61.6%
HGC-27 cell growth inhibition rate ([6]; 50 μM): 82.1%
HGC-27 cell growth inhibition rate ([6]; 75 μM): 96.5%
HGC-27 cell growth inhibition rate ([6]; 100 μM): 98.1%
HGC-27 cell growth inhibition rate ([6]; 200 μM): 97.2%
HGC-27 cell growth inhibition rate ([6]; 500 μM): 98.2%

CCN(CC)CCOC(=O)c1ccccc1Nc1cccc(C)c1C.Cl [P-46, diethylaminoethyl 2-[(2,3-dimethylphenyl)amino]benzoate.HCl]
tumor Size at day 30 [1, 7]: 650 ± 250 mm^3
Weight of mice at day 30 ([1]; in vivo): 23 ± 3

CC(C(=O)OCC1CCNCC1)c1cccc(Oc2ccccc2)c1.Cl (centres unmarked) [P-4, 4-piperidinemethyl 2-(3-phenoxyphenyl)propionate.HCl]
tumor Size at day 30 [1, 7]: 550 ± 128 mm^3
Weight of mice at day 30 ([1]; in vivo): 22 ± 3
tumor Size at day 42 [2, 8]: 190 ± 55 mm^3
Weight of mice at day 42 ([2]; in vivo): 23 ± 3
